# Patent US20240335395A1, “COMPOSITIONS AND METHODS FOR PREVENTING AND/OR TREATING DISEASE ASSOCIATED WITH IL-23 EXPRESSION” (ALLSPIM, priority 2021, published 2024)
# How the values were obtained:
# IL-6 = test: MSU-induced IL-6 in knee joint tissue (multiplex microassay); assay type: in vivo, mouse; settings: 2,4-D 100 mg/kg, CLC 1 mg/kg, DEX 0.5 mg/kg
# Method: Mice (six per group) were treated with 2,4-D (100 mg/kg or 20 mg/kg, i.p.), CLC (1 mg/kg or 0.2 mg/kg, i.p.), DEX (0.5 mg/kg or 0.1 mg/kg, i.p.), or vehicle (20% polyoxyethylenesorbitan monooleate (Tween 80) plus PBS) 30 min before intra-articular stimulus with MSU (100 μg/10 μL, i.a.). Six mice with intra-articular injection with PBS alone served as a negative control.
# Induction of MSU-Induced Knee Joint Inflammation. Male ICR (CD-1) mice (35-45 g, 10-12 weeks) were purchased from VitalRiver Inc (Beijing, China) and were kept in an animal care facility under controlled temperature of 21±1° C., humidity, and on a light/dark cycle, with ad libitum access to water and standard laboratory chow diet. Animal care and handling procedures were approved by the Animal Ethics Committee of GZUCM (Guangzhou University of Chinese Medicine). All efforts were made to minimize animal suffering and to reduce the number of animals used. Joint inflammation was induced by the intra-articular (i.a.) administration of MSU (200 μg/20 μl) into the right and left knee joints of mice under inhaled 3% isoflurane anesthesia. Control animals received an injection (i.a.) of sterile PBS (20 μL).
# Cytokine Measurement. Mice were anesthetized and sacrificed. Knee joints were collected and frozen in liquid nitrogen. Samples were then homogenized in 500 μl of buffer containing protease inhibitors, centrifuged (3600 rpm, 4° C., 15 min) and supernatants were used to determine Th1/Th2/Th17 cytokine levels using a multiplex microassay (Qantibody® mouse TH17 Array 1 kit, Cat. No.: QAM-TH17-1; RayBiotech, Norcross, GA). Results were expressed as picograms (pg) of cytokine/mg of tissue.
# Statistical Analysis. […] For in vitro experiments, microassays were performed in quadruplicate. p<0.05 was considered significant (*p<0.05, **p<0.01, ***p<0.001).
# IL-1β, IL6 and TNFalpha = test: Endometriosis mouse model, cytokines in cell-free peritoneal lavage (ELISA); assay type: in vivo; settings: 50 mg/kg/day, 5 times a week, 6 weeks
# Method: Experimental design. Balb/C female mice (10 weeks old) were habituated for 3 days to take a jelly containing (group EDT+2,4D) or not (groups No EDT and EDT+Vehicle) the compound. Surgical implantation of endometrial tissue from syngenic female in peritoneum, was performed at day 0 for groups EDT+Vehicle and EDT+2,4D. […] The vehicle or treatment was then given 5 times a week (50 mg/kg/day) during 6 weeks. Mice were then sacrificed and the peritoneal inflammation was assessed. All the details of the protocol are depicted in FIG. 27. Cytokine measurement in cell-free peritoneal lavage. After mice were euthanized, 5 mL of PBS was injected into the peritoneal cavity and the diluted peritoneal fluid containing the cells was then retrieved. […] Cytokine concentration was assessed by ELISA kit in the peritoneal fluid (ThermoFisher, Mouse IL-1β, IL6 and TNFalpha Uncoated ELISA). […] The optical density was read with the Clariostar Plus Microplate Reader (BMG LABTECH), through the Clario software. Concentrations were calculated from a standard curve according to the manufacturer's protocol. Phenotypic study of immune cells from the peritoneal cavity assessed by flow cytometry. The pelleted peritoneal cells were resuspended in PBS-2% FBS and counted. […] All data were collected on LSR Fortessa flow cytometer (BD Bioscience, USA) and analyzed with FlowJo software. […]
# [1] = test system: laser-induced choroidal neovascularization (CNV); test: Laser-induced CNV in rats, fluorescein angiography leakage grading; assay type: in vivo, rat; settings: 14 days, intravitreous injection
# Method: Animals. All experiments were performed in accordance with the European Communities Council Directive 86/609/EEC and approved by local ethical committees (#2541-2015110210279792 v3). Six- to eight-week-old male Long Evans rats from the Janvier Breeding Center (Le Genest-Saint-Isle, France) were used to create a rat model of choroidal neovascularization (CNV) used as a model of human wet macular degeneration.
# Laser-induced CNV. After anesthesia and dilation of the pupils, coverslips were positioned on the cornea as a contact glass. For rats, six or eight burns were performed 2 to 3 optic disc diameters away from the optic nerve with an Argon laser (532 nm) mounted on a slit lamp (175 mW, 0.1 s and 50 μm). Both eyes of animals received laser induction. The presence of a bubble witnessed the rupture of Bruch's membrane and confirmed a successful laser impact.
# Treatments. After laser photocoagulation, rats were divided into 3 treatment groups: —Intravitreous injection (IVT) of 2,4-D (identified as “new treatment”, New T), —IVT of vehicle (PBS), —IVT of triamcinolone acetonide (Kenacort® 40 mg/ml; TA) (n=12 rats per group). The IVT consisted of 5 μl injected with a 31G needle mounted on a micro-thin (100 μl) syringe posterior to the limbus, avoiding the lens. IVT was performed immediately after laser had been performed. Animals were sacrificed at 7 days (n=6 per group- and at 16 days (n=6 per group).
# Fluorescein angiography (FA). FA was performed 14 days after laser induction. […] Early and late phase angiograms were recorded 1-3 and 5-7 min respectively after fluorescein injection. […] Angiographic scores were established by 2 blinded observers according to the following criteria: grade 0, no hyper-fluorescence; grade 1, slight hyper-fluorescence with no increase in intensity nor in size; grade 2, hyper-fluorescence increasing in intensity but not in size; grade 3, hyper-fluorescence increasing both in intensity and size; grade 4, hyper-fluorescence size increase more than 2-diameter of the initial laser burn.
smiles,measurement,setting,value
"COc1cc(O)c(OC)c(O)c1C(=O)/C=C/c1ccccc1 [2,4-D, 2′,4′-dihydroxy-3′,6′-dimethoxychalcone]",decrease of IL-6 in knee joint tissue,IL-6,7.6 fold
same,"concentration of IL1-β, IL-6 and TNF-α in peritoneal lavage","IL-1β, IL6 and TNFalpha",tended to normalize
same,percentage of impact graded 0-1,[1],68%
same,percentage of impact in grade 3-4 (intense leakage),[1],13%
same,grading score of impacts compared to vehicle,[1]; Dunn's multiple comparison,significantly reduced
